For test [1], the target named is T1, HORK3 protein (human ADP receptor P2TAC) (Homo sapiens, UniProt Q9H244). Nature of the test: [3H]-2MeSADP binding assay on membrane fraction of C6-15 cell expressing HORK3 protein. The note with it: 1 nmol/L [3H]-2MeSADP; 20 μg membrane fraction; room temperature 2 hours. The source says: The C6-15 cells expressing the HORK3 protein prepared in Example 5 were taken and washed, and then suspended in 20 mmol/L Tris-HCl (pH7.4) containing 5 mmol/L EDTA and a protease inhibitor cocktail set (Complete™; manufactured by Boeringer Mannheim). The whole was homogenized by using a POLYTRON, and ultracentrifuged. The pellet was suspended in 50 mmol/L Tris-HCl (pH7.4) containing 1 mmol/L EDTA, 100 mmol/L NaCl, 0.1% BSA, and Complete™ to obtain a membrane fraction.
After [^3H]-2MeSADP (manufactured by Moravek Biochemical) was added to 20 μg of the membrane fraction as a final concentration of 0.25 to 50 nmol/L, and was incubated in 250 μL of 50 mmol/L Tris-HCl (pH7.4) containing 1 mmol/L EDTA, 100 mmol/L NaCl, 0.1% BSA, and Complete™ at room temperature for 1 hour, the whole was collected on a glass filter by using a cell harvester. A microscintillator was added to the glass filter, and then a total amount of binding to the membrane fraction was measured by using a liquid scintillation counter. Further, an amount of non-specific binding to the membrane fraction was measured by adding 2MeSADP (a final concentration=50 μmol/L) in the above assay.
A microscintillator was added to the glass filter, and then radioactivity was measured by using a liquid scintillation counter. Further, radioactivity was measured by not adding the compound and by adding 2MeSADP (a final concentration=10 μmol/L) in the above assay, as a total amount of binding and an amount of non-specific binding, respectively.

For test [2], the target named is T1, HORK3 protein (human ADP receptor P2TAC). Nature of the test: Forskolin-stimulated cAMP production in C6-15 cell expressing HORK3 protein (cAMP HTRF). The format is cell-based. The note with it: C6-15 cells expressing HORK3; for EC50: 1 μmol/L forskolin, 37° C. 30 minutes, read-out: EC50, responsiveness against the HORK3 protein (decrease of cAMP produced by forskolin). A general note: Cyclic AMP is a second messenger, typically raised through Gs and lowered through Gi signalling.
Protocol: The C6-15 cells expressing the HORK3 protein were seeded on a 96-well plate (1×10^4 cells/well). After culturing for 1 day, cells were treated with a DMEM medium containing 1 mmol/L 3-isobutyl-1-methylxanthine (manufactured by Sigma) and 0.1% BSA for 10 minutes, and then the combination of 1 μmol/L forskolin (manufactured by Wako Pure Chemical Industries) and 2MeSADP (a final concentration=1×10^−12 to 1×10^−7 mol/L), or the combination of 1 μmol/L forskolin and ADP (a final concentration=1×10^−10 to 1×10^−5 mol/L) was added dropwise. After incubating at 37° C. for 30 minutes, the culture supernatant was discarded, and then cells were dissolved in PBS containing 0.2% Triton X-100.
The amount of cAMP produced in each cell under each condition was measured by using a cAMP HTRF kit (manufactured by CIS bio international) in accordance with a protocol attached thereto. When the amount of cAMP produced by stimulating with 1 μmol/L forskolin alone was regarded as 100%, a concentration-dependent curve for the amount of cAMP in the presence of 2MeSADP or ADP was drawn.
Next, effects of compounds, which are known to suppress the platelet aggregation, on the suppression of the amount of cAMP produced by the forskolin stimulus in the C6-15 cell expressing the HORK3 protein by 2MeSADP were examined. […] After incubating at 37° C. for 30 minutes, the culture supernatant was discarded, and then cells were dissolved in PBS containing 0.2% Triton X-100. The amount of cAMP produced was measured by using the cAMP HTRF kit in accordance with a protocol attached thereto. When the amount of cAMP produced by stimulating with 1 μmol/L forskolin alone was regarded as 0%, and that by stimulating with the combination of 1 μmol/L forskolin and 10 nmol/L 2MeSADP was regarded as 100%, a concentration-dependent curve of each inhibitor was drawn.

Test [3] concerns ADP-induced platelet aggregation of human PRP. In words: ADP-induced human platelet aggregation in platelet-rich plasma (aggregometer). The format is cell-based. The note with it: sodium citrate, ADP 20 to 200 μmol/L added as inducer, FIGS. 1 and 2. How it is done:
Blood was collected from a healthy person (adult) by using 1/10 volume of sodium citrate, and then platelet-rich plasma(PRP) was prepared in accordance with a method of De Marco et al. (J. Clin. Invest., 77, 1272-1277, 1986). The PRP was used after preparing it to 3×10^8 cells/mL by using an automatic blood cell counter (MEK6258; Nihon Kohden Corporation). As an inducer of aggregation, ADP which is a product manufactured by MC Medical Corporation was used.
The platelet aggregation was measured by using an aggregometer (MCM Hema Tracer 212; MC Medical Corpration). […] Changes of a transmitted light were recorded for 10 minutes, and then an aggregation inhibition (%) was calculated from the maximum aggregation rate.
The data for 2MeSAMP (FIG. 1) are represented by the “average” of the experiment results obtained by using two volunteers. […] The inhibitory strength was dependent on the concentration of ADP as an inducer.

Test [4] concerns CHO cell transfected with the empty vector. Nature of the test: Forskolin-stimulated cAMP production in control CHO cell transfected with the empty vector. The format is cell-based, Chinese hamster. The note with it: 3 μmol/L forskolin. How it is done: The CHO-dhfr(−) line was seeded on each 10 cm-petri dish (1×10^6 cells/dish) by using an αMEM (with nucleic acids) medium. After culturing for 1 day, a gene transfection was carried out by using a transfection reagent (LipofectAMINE 2000; manufactured by GIBCO BRL) and the plasmid pEF-BOS-dhfr-HORK3 (8 μg). As a control, a gene transfection was carried out by using the plasmid pEF-BOS-dhfr (i.e., an empty vector without the HORK3 gene), instead of the plasmid pEF-BOS-dhfr-HORK3.
After 24 hours from the gene transfection procedure, the transfected cells were taken and suspended in an αMEM (without nucleic acids) medium containing 100 nmol/L methotrexate (a competitive inhibitor of DHFR; manufactured by Wako Pure Chemical Industries). Each suspension was gradually diluted and reseeded on each 10 cm-petri dish. Colonies which appeared after 2 weeks were individually taken, and used as a CHO cell expressing the HORK3 protein or a control CHO cell transfected with the empty vector in the following experiment.
The CHO cells expressing the HORK3 protein or the CHO cells transfected with the empty vector were seeded on a 24-well plate (1×10^5 cells/well). […]
The amount of cAMP produced in each cell under each condition was measured by using the cAMP-EIA system in accordance with a protocol attached thereto. […]

Test [5] deals with C6-15 cells transfected with pEF-BOS-dhfr (empty vector) and pEF-BOS-Gqi. Nature of the test: Intracellular Ca2+ concentration in control C6-15 cells transfected with empty vector and Gqi. The format is cell-based, rat. The note with it: empty vector plus Gqi control cells; 3x10^-5 to 1x10^-12 mol/L. How it is done:
The C6-15 cells were seeded on a 96-well plate (96 well Black/clear bottom plate, collagen I coated; manufactured by BECTON DICKINSON) so that the concentration of cells became 2×10^4 cells/well. After culturing for 48 hours, a gene transfection was carried out by using a transfection reagent (LipofectAMINE 2000; manufactured by GIBCO BRL) and the combination of the plasmid pEF-BOS-dhfr-HORK3 (50 ng/well) and the plasmid pEF-BOS-Gqi (50 ng/well). As a control, a gene transfection was carried out by using the combination of the plasmid pEF-BOS-dhfr (i.e., an empty vector without the HORK3 gene) and the plasmid pEF-BOS-Gqi, instead of the combination of the plasmid pEF-BOS-dhfr-HORK3 and the plasmid pEF-BOS-Gqi. […]
A time course of the change in the intracellular Ca^2+ concentration was measured by using FLIPR (manufactured by Molecular Device). More particularly, after 10 seconds from the beginning of measurement, 2MeSADP or ADP was added to wells to a final concentration of 3×10^−5 mol/L to 1×10^−12 mol/L. After the addition, each fluorescence intensity was measured at an interval of 1 second for 50 seconds, and then at an interval of 6 seconds for 4 minutes. […]

The target of test [6] is T1, HORK3 protein (human ADP receptor P2TAC). Nature of the test: Increase in intracellular Ca2+ concentration in C6-15 cell co-expressing HORK3 protein and Gqi (FLIPR). The format is cell-based. Details: expressed in transfected cells; host or cells: C6-15 rat glioma cells, transient co-transfection of pEF-BOS-dhfr-HORK3 and pEF-BOS-Gqi. The note with it: C6-15 cells transfected with pEF-BOS-dhfr-HORK3 and pEF-BOS-Gqi; peak values, Logistic regression. On the procedure: When most purines such as ADP, 2MeSADP (2-methylthio-ADP), or the like are added to a cell, the increase in intracellular Ca^2+ via an endogenous cellular membrane receptor is observed. […] In the present example, the C6-15 cell was used to express the HORK3 protein.
Further, the plasmid pEF-BOS-dhfr-HORK3 obtained in Example 1 was used as an expression plasmid to be used for expressing the HORK3 protein. […]
A time course of the change in the intracellular Ca^2+ concentration was measured by using FLIPR (manufactured by Molecular Device). More particularly, after 10 seconds from the beginning of measurement, 2MeSADP or ADP was added to wells to a final concentration of 3×10^−5 mol/L to 1×10^−12 mol/L. After the addition, each fluorescence intensity was measured at an interval of 1 second for 50 seconds, and then at an interval of 6 seconds for 4 minutes.
The change of the intracellular Ca^2+ concentration by 2MeSADP or ADP in the cells to which the plasmid pEF-BOS-dhfr-HORK3 and the plasmid pEF-BOS-Gqi had been transfected was measured, each peak value in various concentrations of 2MeSADP or ADP was plotted, and then the dependency upon the concentration was analyzed by using a Logistic regression method.

Test [7] shares this target. In words: Inhibition of forskolin-stimulated cAMP production in CHO cell expressing HORK3 protein. The format is cell-based. The note with it: CHO-dhfr(-) cells expressing HORK3; 3 μmol/L forskolin; 37° C. 30 minutes; read-out: EC50, responsiveness against the HORK3 protein (decrease of cAMP produced by forskolin). An excerpt:
It was found from Example 3 that the ADP receptor was a Gi-coupled receptor, and thus it is expected that the ADP receptor has an activity of suppressing the adenylate cyclase activity. […] In this connection, a dihydrofolate reductase (DHFR; an essential enzyme for de novo synthesis of nucleic acids) defective cell line [CHO-dhfr(−) line] was used in the present example. The plasmid pEF-BOS-dhfr-HORK3 was used as an expression plasmid to be used for expressing the HORK3 protein. The CHO-dhfr(−) line was seeded on each 10 cm-petri dish (1×10^6 cells/dish) by using an αMEM (with nucleic acids) medium. […] As a control, a gene transfection was carried out by using the plasmid pEF-BOS-dhfr (i.e., an empty vector without the HORK3 gene), instead of the plasmid pEF-BOS-dhfr-HORK3. After 24 hours from the gene transfection procedure, the transfected cells were taken and suspended in an αMEM (without nucleic acids) medium containing 100 nmol/L methotrexate (a competitive inhibitor of DHFR; manufactured by Wako Pure Chemical Industries). Each suspension was gradually diluted and reseeded on each 10 cm-petri dish. […] The amount of cAMP produced in each cell under each condition was measured by using the cAMP-EIA system in accordance with a protocol attached thereto.

Molecules are shown by their SMILES.

T1 sequence (Q9H244 whole entry): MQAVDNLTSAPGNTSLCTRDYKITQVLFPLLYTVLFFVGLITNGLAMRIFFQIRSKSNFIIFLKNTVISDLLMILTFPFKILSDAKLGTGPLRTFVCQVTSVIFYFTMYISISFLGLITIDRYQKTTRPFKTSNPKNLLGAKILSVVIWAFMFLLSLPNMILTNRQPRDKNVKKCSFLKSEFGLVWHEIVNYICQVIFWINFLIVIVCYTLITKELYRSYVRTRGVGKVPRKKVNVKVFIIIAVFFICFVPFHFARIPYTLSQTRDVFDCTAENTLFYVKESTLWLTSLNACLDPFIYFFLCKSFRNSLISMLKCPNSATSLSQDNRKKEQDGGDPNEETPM

Broadly, the IC50 is the concentration needed to halve the response being measured. Regarding `CSc1nc(N)c2ncn([C@@H]3O[C@H](COP(=O)(O)O)[C@@H](O)[C@H]3O)c2n1` [2MeSAMP, 2-methylthio-adenosine monophosphate], the concentration for half-maximal inhibition (IC50) came to 4900 nM in test [1]; 5000 nM in test [2] (1 μmol/L forskolin and 10 nmol/L 2MeSADP, read-out: IC50, inhibitory effect on the suppression by 2MeSADP in the amount of cAMP produced by the forskolin stimulus). Further, the “inhibition of ADP-induced platelet aggregation” value in test [3] was “inhibited the ADP-induced platelet aggregation concentration-dependently”.

In general, EC50 refers to the concentration at which the effect is half-maximal. For the compound `CSc1nc(N)c2ncn([C@@H]3O[C@H](COP(=O)(O)OP(=O)(O)O)[C@@H](O)[C@H]3O)c2n1` [2MeSADP, 2-methylthio-ADP], the EC50 is 0.08 nM in test [2], 5.4 nM in test [6] and 0.07 nM in test [7]. For the same compound, the “changes in the amount of cAMP produced by the forskolin stimulus” value in test [4] is listed as “no changes”. In addition, the “change of the intracellular Ca2+ concentration” value in test [5] is “not observed”.

On to `Nc1ncnc2c1ncn2[C@@H]1O[C@H](COP(=O)(O)OP(=O)(O)O)[C@@H](O)[C@H]1O` [ADP, adenosine 5′-diphosphate], for which the EC50 turned out to be 42 nM in test [2], 220 nM in test [6] and 35 nM in test [7]. The “changes in the amount of cAMP produced by the forskolin stimulus” value in test [4] was “no changes”. In addition, the “change of the intracellular Ca2+ concentration” value in test [5] is “not observed”.

Consider `CSCCNc1nc(SCCC(F)(F)F)nc2c1ncn2[C@@H]1O[C@H](COP(=O)(O)OP(=O)(O)C(Cl)(Cl)P(=O)(O)O)[C@@H](O)[C@H]1O` [AR-C69931MX, N6-[2-methylthioethyl]-2-[3,3,3-trifluoropropylthio]-5′-ade nylic acid, monoanhydride with dichloromethylenebiphosphonic acid], for which the “inhibition of ADP-induced platelet aggregation” value in test [3] is listed as “inhibited the ADP-induced platelet aggregation concentration-dependently”.

(Values after patent publication US7405051B2, “Method of screening antiplatelet agents” (Astellas Pharma Inc., priority 2000, dated 2008).)
